Source: patent US8642040B2, “Methods for promoting myelination, neuronal survival and oligodendrocyte differentiation via administration of Sp35 or TrkA antagonists” (Biogen Idec MA Inc., priority 2006, dated 2014)

Experiments:
Format in all cases: cell-based, rat
[1] = test system: DRG-oligodendrocyte co-cultures; test: DRG-oligodendrocyte co-culture myelination, Western blot for MBP and MAG; details: FIG. 7
Text: CNS myelination in the presence of NGF and either an Sp35 antagonist (Sp35-DN) or a TrkA antagonist (TrkA-DN) was examined. 3 week old DRG and oligodendrocyte cocultures (prepared as described in Example 3) were infected with lentiviruses, at an MOI of 2 per cell, expressing either full-length or dominant negative Sp35, full-length or dominant negative Nogo Receptor, full-length or dominant negative Taj, full-length or dominant negative p75, and full-length or dominant negative TrkA. Lentiviruses were prepared as described in Example 3 and as follows. Rat p75 full length (FL-p75, amino acid residues 1-425), p75 dominant negative (DN-p75, amino acid residues 1-275), human TrkA full length (FL-TrkA, amino acid residues 1-796), TrkA dominant negative (DN-TrkA, amino acid residues 1-441), human Taj full length (FL-Taj, amino acid residues 1-417), Taj dominant negative (DN-Taj, amino acid residues 1-192), rat Nogo receptor full length (FL-NgR, amino acid residues 1-473), Nogo receptor dominant negative (DN-NgR, amino acid residues 28-310). DNA sequence was inserted into the NotI and BamHI sites of HRST-IRESeGFP lentivirus vector. Plasmids were transfected into 293 cells to produce lentivirus as described in Rubinson et al. Nat. Genetics 33:401-406 (2003).
Co-culture lysates were examined at 3 weeks and analyzed by Western blot as described previously. The blots were probed with polyclonal antibodies to MAG and to MBP. The myelin proteins MAG and MBP were used as markers for myelination.
The TrkA compound antagonist K525a was also tested in DRG-oligodendrocyte cocultures for its ability to promote myelination.
The myelin proteins MAG and MBP were used to determine whether TrkA was upstream of Sp35 in inhibiting myelination in DRG-oligodendrocyte co-cultures. Oligodendrocyte-DRG co-cultures were prepared as described in Example 3. […]
Fresh media was changed every three days. […] Lysates were subjected to 4-20% SDS-PAGE, and analyzed by Western blotting with an antibody to MBP, MAG and Sp35. […]

Sp35 [2] = test: RT-PCR for Sp35 in purified DRGs with or without NGF; details: 100 ng/ml NGF for 24 hours; FIG. 9A
Procedure: RT-PCR for TrkA, Sp35 and GAPDH was performed on purified OPCs, SCs and DRGs in the presence or absence of NGF or BDNF as follows. Cultures of OPCs, SCs and DRGs were prepared as described above. Wells of the tissue culture dishes were treated with either 100 ng/ml of NGF or 100 ng/ml of BDNF for 24 hours prior to mRNA isolation. Cellular mRNA was extracted using the Absolutely RNA miniprep kit (Stratagene). Equal amounts of mRNA were subjected to RT-PCR. The primer sets used for the PCR reactions are as follows: […]

Sp35 [3] = test: Sp35 expression in co-cultures, DRG neuronal and oligodendrocyte cultures treated with NGF
Procedure: Oligodendrocyte—DRG co-cultures were prepared as described previously. Various concentrations of NGF (0, 10, 50 and 100 ng/ml) were added to oligodendrocyte—DRG co-cultures, DRG neuronal cultures and oligodendrocyte cultures. In all cultures expression of Sp35 and phosphorylated TrkA was examined by […] or immuno-histochemical staining.

[4] = test system: Oligodendrocyte/DRG co-cultures; test: Oligodendrocyte/DRG co-culture myelination, MBP immunofluorescence
Procedure: Enriched populations of oligodendrocytes were grown from Female Long Evans post-natal day 2 (P2) rats. Briefly, the forebrain was dissected out and placed in Hank's buffered salt solution (HBSS) (Invitrogen, Grand Island, N.Y.). The tissue was cut into 1 mm fragments and incubated at 37° C. for 15 min in 0.01% trypsin and 10 μg/ml DNase. Dissociated cells were plated on poly-L-lysine-coated T75 tissue culture flasks and grown at 37° C. for 10 days in DMEM medium with 20% fetal calf serum (Invitrogen). Oligodendrocyte precursors (A2B5+) were collected by shaking the flask overnight at 200 rpm at 37° C., resulting in a 95% pure population. Cultures were maintained in high glucose DMEM medium containing FGF/PDGF (Peprotech) (10 ng/ml) for 1 week.
DRG cultures were prepared as follows. Embryonic dorsal root ganglia (DRG) neurons were grown in vitro as previously described in Mi et al., Nat. Neurosci. 8:745-51 (2005) and Kleitman et al. “Tissue culture methods for the study of myelination.” Culturing Nerve Cells. Banker and Goslin, eds. Cambridge Mass.: MIT Press, 337-377 (1991). Briefly, dorsal root ganglia, dissected from embryonic day 15 (E15) Long Evans rats, were plated on poly-D-lysine (100 μg/ml)-coated cover slips for 2 weeks and grown in Neurobasal medium supplemented with B27 (Invitrogen) in the presence or absence of 100 ng/ml nerve growth factor (BD Biosciences). To remove proliferating glial cells, the cultures were pulsed twice with fluorodeoxyuridine (20 μM) from days 2-6 and from days 8-10.
Oligodendrocyte-DRG co-cultures were prepared as follows. A2B5+ oligodendrocyte progenitor cells and DRG neuron drop cultures were prepared as above. One day after oligodendrocyte progenitors were added to DRG neurons, co-cultures were infected with lentivirus expressing GFP (control), dominant-negative Sp35 or full length Sp35 at 2 MOI per cell. DNA sequences used for lentiviral construction were, mouse Sp35 full length (FL-Sp35, encoding amino acid residues 34-614), Sp35 dominant negative (DN-Sp35, encoding amino acid residues 34-581). DNA sequences were inserted into the NotI and BamHI sites of HRST-IRESeGFP lentivirus vector. Plasmids were transfected into 293FT cells to produce lentivirus as described in Rubinson et al. Nat. Genetics 33:401-406 (2003).
Oligodendrocyte/DRG co-cultures were prepared as described in Example 3. The co-cultures were treated with increasing concentrations of Sp35-Fc or control-Fc for 3 weeks. Monoclonal antibodies against MBP were used to determine MBP protein concentration and for immunofluorescence experiments (Sternberger Monoclonals). […]

## COC(=O)[C@@]1(O)C[C@H]2O[C@]1(C)n1c3ccccc3c3c4c(c5c6ccccc6n2c5c31)C(=O)NC4 [K525a]
[1]; concentration 1 nM
  myelination, as measured by the presence of MBP: promoted myelination
[1]; concentration 3 nM
  myelination, as measured by the presence of MBP: promoted myelination

## NGF: Nerve Growth Factor, the TrkA ligand
Sp35 [2]
  Sp35 mRNA in DRGs: induction
Sp35 [3]; 100 ng/ml of NGF, FIG. 10
  Sp35 in DRG neurons by immunofluorescence: Upregulation
Sp35 [3]; NGF 0, 10, 50 and 100 ng/ml, FIG. 8
  Sp35 expression in oligodendrocyte/DRG cocultures: increased
Sp35 [3]; NGF 0, 10, 50 and 100 ng/ml, FIG. 9
  Sp35 expression in cultured oligodendrocytes: remained constant
[4]; in the presence of NGF
  myelination in co-culture: inhibited

B1: Sp35-Fc: extra-cellular portion of human Sp35 (residues 1-532) fused to the hinge and Fc region of human IgG1 (protein)
chain: TGCPPRCECSAQDRAVLCHRKRFVAVPEGIPTETRLLDLGKNRIKTLNQDEFASFPHLEELELNENIVSAVEPGAFNNLFNLRTLGLRSNRLKLIPLGVFTGLSNLTKLDISENKIVILLDYMFQDLYNLKSLEVGDNDLVYISHRAFSGLNSLEQLTLEKCNLTSIPTEALSHLHGLIVLRLRHLNINAIRDYSFKRLYRLKVLEISHWPYLDTMTPNCLYGLNLTSLSITHCNLTAVPYLAVRHLVYLRFLNLSYNPISTIEGSMLHELLRLQEIQLVGGQLAVVEPYAFRGLNYLRVLNVSGNQLTTLEESVFHSVGNLETLILDSNPLACDCRLLWVFRRRWRLNFNRQQPTCATPEFVQGKEFKDFPDVLLPNYFTCRRARIRDRKAQQVFVDEGHTVQFVCRADGDPPPAILWLSPRKHLVSAKSNGRLTVFPDGTLEVRYAQVQDNGTYLCIAANAGGNDSMPAHLHVRSYSPDWPHQPNKTFAFISNQPGE
modifications: left off: a dimerising Fc or GST
notes: extra-cellular portion of human Sp35 (residues 1-532) fused to the hinge and Fc region of human IgG1
[4]; 100 ng/ml NGF, 14 days, compared to controls, FIG. 13
  MBP positive oligodendrocytes and myelin internodes: enhancement
[4]; co-culture in the presence of NGF, treated 3 weeks, vs control-Fc, FIG. 5
  number of MBP+ oligodendrocytes: increased
[4]; increasing concentrations of Sp35-Fc, 3 weeks, NGF present, FIG. 5C
  number of MBP+ cells, dependence on concentration: increased as the concentration of the Sp35 antagonist increased
[1]; Sp35-Fc as comparator for K525a
  myelination, as measured by the presence of MBP: promoted myelination
